Calls of active or inactive are those of the source. The calls are words filed in the database; no cut-off is given here.
Tests used:
[1] = system: MBC2; test: Antiproliferative activity against human MBC2 cells assessed as reduction in cell viability at 20 uM for 3 days by cell titre glo assay; format: functional, cell-based; conditions: time 3.0 day
[2] = system: MDA-MB-231; test: Induction of cell cycle arrest in human MDA-MB-231 cells assessed as accumulation of cells in G2/M phase at 10 nM for 3 days by BrDU and PI staining based flow cytometric analysis (reference value: 19.3%); format: functional
[3] = system: MDA-MB-231; test: Induction of cell cycle arrest in human MDA-MB-231 cells assessed as accumulation of cells in G2/M phase at 20 microM for 3 days by BrDU and PI staining based flow cytometric analysis (reference value: 19.3%); format: functional; conditions: time 3 day
[4] = system: MDA-MB-231; test: Induction of cell cycle arrest in human MDA-MB-231 cells assessed as accumulation of cells in G0/G1 phase at 10 nM for 3 days by BrDU and PI staining based flow cytometric analysis (reference value: 30.5%); format: functional
[5] = system: MDA-MB-231; test: Inhibition of cell migration in human MDA-MB-231 cells assessed as reduction in cell migration incubated for 3 days by crystal violet staining based transwell assay; format: functional; conditions: dose 1-20 µM, time 3.0 day
[6] = system: MBC26; test: Antiproliferative activity against human MBC26 cells assessed as reduction in cell viability at 20 uM for 3 days by cell titre glo assay; format: functional, cell-based; conditions: time 3.0 day
[7] = system: MDA-MB-231; test: Induction of cell cycle arrest in human MDA-MB-231 cells assessed as accumulation of cells in S phase at 20 microM for 3 days by BrDU and PI staining based flow cytometric analysis (reference value: 45.7%); format: functional
[8] = system: MCF-10A; test: Inhibition of cell migration in human MCF-10A cells assessed as reduction in cell migration incubated for 3 days by crystal violet staining based transwell assay; format: functional; conditions: dose 1-20 µM, time 3.0 day
[9] = system: MDA-MB-231; test: Induction of cell cycle arrest in human MDA-MB-231 cells assessed as accumulation of cells in G0/G1 phase at 20 microM for 3 days by BrDU and PI staining based flow cytometric analysis (reference value: 30.5%); format: functional; conditions: time 3 day
[10] = system: MBC26; test: Inhibition of cell migration in human MBC26 cells assessed as reduction in cell migration at 20 microM for 3 days by crystal violet staining based transwell assay; format: functional; conditions: time 3.0 day
[11] = system: MBC2; test: Inhibition of cell migration in human MBC2 cells assessed as reduction in cell migration at 20 microM for 3 days by crystal violet staining based transwell assay; format: functional; conditions: time 3.0 day
[12] = system: MCF10DCIS; test: Inhibition of cell migration in human MCF10DCIS cells assessed as reduction in cell migration incubated for 3 days by crystal violet staining based transwell assay; format: functional; conditions: dose 1-20 µM, time 3.0 day
[13] = system: MDA-MB-231; test: Induction of cell cycle arrest in human MDA-MB-231 cells assessed as accumulation of cells in G0/G1 phase at 10 uM for 3 days by BrDU and PI staining based flow cytometric analysis (reference value: 30.5%); format: functional
[14] = system: MDA-MB-231; test: Induction of cell cycle arrest in human MDA-MB-231 cells assessed as accumulation of cells in G2/M phase at 10 uM for 3 days by BrDU and PI staining based flow cytometric analysis (reference value: 19.3%); format: functional
[15] = system: MDA-MB-231; test: Induction of cell cycle arrest in human MDA-MB-231 cells assessed as accumulation of cells in not cycling S phase at 20 microM for 3 days by BrDU and PI staining based flow cytometric analysis (reference value: 2.5%); format: functional
[16] = system: MBC2; test: Antiproliferative activity against human MBC2 cells assessed as reduction in cell viability at 10 uM for 3 days by cell titre glo assay; format: functional, cell-based; conditions: time 3.0 day
[17] = system: MDA-MB-231; test: Induction of cell cycle arrest in human MDA-MB-231 cells assessed as accumulation of cells in S phase at 10 nM for 3 days by BrDU and PI staining based flow cytometric analysis (reference value: 45.7%); format: functional
[18] = system: MDA-MB-231; test: Induction of cell cycle arrest in human MDA-MB-231 cells assessed as accumulation of cells in not cycling S phase at 10 uM for 3 days by BrDU and PI staining based flow cytometric analysis (reference value: 2.5%); format: functional; conditions: time 3 day
[19] = system: MDA-MB-231; test: Induction of cell cycle arrest in human MDA-MB-231 cells assessed as accumulation of cells in S phase at 10 uM for 3 days by BrDU and PI staining based flow cytometric analysis (reference value: 45.7%); format: functional; conditions: time 3 day
[20] = system: MDA-MB-231; test: Induction of cell cycle arrest in human MDA-MB-231 cells assessed as accumulation of cells in not cycling S phase at 10 nM for 3 days by BrDU and PI staining based flow cytometric analysis (reference value: 2.5%); format: functional
[21] = system: MDA-MB-231; test: Inhibition of cell migration in human MDA-MB-231 cells assessed as reduction in cell migration at 10 microM for 3 days by crystal violet staining based transwell assay; format: functional; conditions: time 3.0 day
[22] = system: MCF10DCIS; test: Inhibition of cell migration in human MCF10DCIS cells assessed as reduction in cell migration at 10 microM for 3 days by crystal violet staining based transwell assay; format: functional; conditions: time 3.0 day
[23] = system: MBC26; test: Antiproliferative activity against human MBC26 cells assessed as reduction in cell viability at 10 uM for 3 days by cell titre glo assay; format: functional, cell-based; conditions: time 3.0 day
[24] = system: MDA-MB-231; test: Induction of cell cycle arrest in human MDA-MB-231 cells assessed as accumulation of cells in not cycling S phase at 10 nM for 3 days in presence of OCIR-9429 by BrDU and PI staining based flow cytometric analysis (reference value: 2.5%); format: functional; conditions: time 3 day
[25] = system: MDA-MB-231; test: Cytotoxicity against human MDA-MB-231 cells assessed as cell viability at 10 nM for 3 days in presence of OCIR-9429 relative to control; format: functional; conditions: MDA-MB-231, 72 h, time 3 day, read-out: Activity
[26] = system: MDA-MB-231; test: Induction of cell cycle arrest in human MDA-MB-231 cells assessed as DNA damage by measuring gamma H2AX phosphorylation at 10 nM for 3 days in presence of OICR-9429 by Western blot analysis; format: functional, cell-based; conditions: time 3.0 day
[27] = system: MDA-MB-231; test: Induction of cell cycle arrest in human MDA-MB-231 cells assessed as accumulation of cells in S phase at 10 nM for 3 days in presence of galunisertib by BrDU and PI staining based flow cytometric analysis (reference value: 45.7%); format: functional; conditions: time 3 day
[28] = system: MDA-MB-231; test: Induction of cell cycle arrest in human MDA-MB-231 cells assessed as accumulation of cells in G0/G1 phase at 10 nM for 3 days in presence of galunisertib by BrDU and PI staining based flow cytometric analysis (reference value: 30.5%); format: functional; conditions: time 3 day
[29] = system: MDA-MB-231; test: Induction of cell cycle arrest in human MDA-MB-231 cells assessed as cleaved PARP at 10 nM for 3 days in presence of galunisertib by Western blot analysis; format: functional, cell-based; conditions: time 3.0 day
[30] = system: MBC26; test: Cytotoxicity against human MBC26 cells assessed as cell viability for 3 days at 1 to 10 nM in presence of -Gaulnisertib; format: functional, cell-based; conditions: dose 1-10 nM, time 3.0 day
[31] = system: MDA-MB-231; test: Cytotoxicity against human MDA-MB-231 cells assessed as cell viability at 10 nM for 3 days in presence of galunisertib relative to control; format: functional; conditions: MDA-MB-231, 72 h, time 3 day, read-out: Activity
[32] = system: MDA-MB-231; test: Induction of cell cycle arrest in human MDA-MB-231 cells assessed as accumulation of cells in G0/G1 phase at 10 nM for 3 days in presence of OCIR-9429 by BrDU and PI staining based flow cytometric analysis (reference value: 30.5%); format: functional; conditions: time 3 day
[33] = system: MDA-MB-231; test: Induction of cell cycle arrest in human MDA-MB-231 cells assessed as accumulation of cells in not cycling S phase at 10 nM for 3 days in presence of galunisertib by BrDU and PI staining based flow cytometric analysis (reference value: 2.5%); format: functional; conditions: time 3 day
[34] = system: MDA-MB-231; test: Induction of cell cycle arrest in human MDA-MB-231 cells assessed as accumulation of cells in S phase at 10 nM for 3 days in presence of OCIR-9429 by BrDU and PI staining based flow cytometric analysis (reference value: 45.7%); format: functional; conditions: time 3 day
[35] = system: MBC2; test: Cytotoxicity against human MBC2 cells assessed as cell viability at 1 to 10 nM for 3 days in presence of galunisertib; format: functional, cell-based; conditions: dose 1-10 nM, time 3.0 day
[36] = system: MDA-MB-231; test: Induction of cell cycle arrest in human MDA-MB-231 cells assessed as DNA damage by measuring gamma H2AX phosphorylation at 10 nM for 3 days in presence of galunisertib by Western blot analysis; format: functional, cell-based; conditions: time 3.0 day
[37] = system: MBC26; test: Cytotoxicity against human MBC26 cells assessed as cell viability for 3 days at 1 to 10 nM in presence of OCIR-9429; format: functional, cell-based; conditions: dose 1-10 nM, time 3.0 day
[38] = system: MDA-MB-231; test: Induction of cell cycle arrest in human MDA-MB-231 cells assessed as cleaved PARP at 10 nM for 3 days in presence of OICR-9429 by Western blot analysis; format: functional, cell-based; conditions: time 3.0 day
[39] = system: MDA-MB-231; test: Induction of cell cycle arrest in human MDA-MB-231 cells assessed as accumulation of cells in G2/M phase at 10 nM for 3 days in presence of galunisertib by BrDU and PI staining based flow cytometric analysis (reference value: 19.3%); format: functional; conditions: time 3 day
[40] = system: MDA-MB-231; test: Induction of cell cycle arrest in human MDA-MB-231 cells assessed as accumulation of cells in G2/M phase at 10 nM for 3 days in presence of OCIR-9429 by BrDU and PI staining based flow cytometric analysis (reference value: 19.3%); format: functional; conditions: time 3 day
[41] = system: MBC2; test: Cytotoxicity against human MBC2 cells assessed as cell viability at 1 to 10 nM for 3 days in presence of OCIR-9429; format: functional, cell-based; conditions: dose 1-10 nM, time 3.0 day

CN1CCN(c2ccc(-c3cccc(CN4CCOCC4)c3)cc2NC(=O)c2c[nH]c(=O)cc2C(F)(F)F)CC1
Activity [1]: inactive
Activity ([2]; time 3.0 day): Active
Activity [3]: 19.1%
Activity ([4]; time 3.0 day): Active
inhibition [5]: Dose-Dependent Effect
Activity [6]: inactive
Activity ([7]; time 3 day): 46%
inhibition [8]: inactive
Activity [9]: 32.3%
inhibition [10]: Active
inhibition [11]: Active
inhibition [12]: Dose-Dependent Effect
Activity ([13]; time 3.0 day): inactive
Activity ([14]; time 3.0 day): Active
Activity ([15]; time 3 day): 2.2%

Cc1cccc(-c2nn3c(c2-c2ccnc4ccc(C(N)=O)cc24)CCC3)n1 [GALUNISERTIB]
Activity [16]: inactive
Activity ([17]; time 3.0 day): Active
Activity [18]: 1.5%
Activity ([7]; time 3.0 day): inactive
Activity [19]: 48.8%
Activity ([20]; time 3.0 day): Active
inhibition [21]: Active
inhibition [22]: Active
Activity ([13]; time 3 day): 30.4%
Activity [23]: inactive
Activity ([14]; time 3 day): 18.5%
Activity ([15]; time 3.0 day): inactive

CC(=O)O[C@H]1C(=O)[C@@]2(C)[C@H]([C@H](OC(=O)c3ccccc3)[C@]3(O)C[C@H](OC(=O)[C@H](O)[C@@H](NC(=O)c4ccccc4)c4ccccc4)C(C)=C1C3(C)C)[C@]1(OC(C)=O)CO[C@@H]1C[C@@H]2O [PACLITAXEL]
Activity [24]: 11.9%
Activity ([2]; time 3 day): 31.7%
viability at 0.01 µM [25]: 10%
Activity [26]: Active
Activity [27]: 34%
Activity ([17]; time 3 day): 38.6%
Activity ([4]; time 3 day): 19.2%
Activity [28]: 16.7%
Activity [29]: Active
Activity [30]: Active
viability at 0.01 µM [31]: 10%
Activity [32]: 22.4%
Activity [33]: 8%
Activity [34]: 26.7%
Activity [35]: Active
Activity ([20]; time 3 day): 9.2%
Activity [36]: Active
Activity [37]: Active
Activity [38]: Active
Activity [39]: 40.1%
Activity [40]: 37.5%
Activity [41]: Active
